Reference: US10251824B2, “Method for inducing pluripotent stem cells and pluripotent stem cells prepared by said method” (AMOREPACIFIC CORPORATION, priority 2013, dated 2019)

What was measured:
[1] = tested on: Oct3/4; test: Oct3/4 immunocytochemistry after digitonin permeabilization (Test Example 2-1); type: cell-based, human; details: 5 μg/mL shikimic acid (water); permeabilized NHDF-Neonatal; day 4
Protocol: (§1) Then, 400× images were obtained using the Carl Zeiss Confocal microscope LSM510 by immunocytochemistry using Oct3/4 antibody (Genetex, GTX100622, ×200) and Alexa Fluor® 488 goat anti-rabbit IgG. The ratio of Oct3/4-positive cells was determined by analyzing the Carl Zeiss Confocal microscopic images obtained from the Oct3/4 ICC experiment, for 4 or more images per sample, 5 on average.

[2] = tested on: alkaline phosphatase (ALP); details: 5 μg/mL shikimic acid; day 11
Protocol: Untreated NHDF-Neonatal were used as a negative control group. On day 6 after the treatment, the cells (5,000 cells) were attached on a 12-well plate. 5 days later, i.e., on day 11, the cells were fixed with 3.8% formaldehyde in PBS and kept at room temperature for 15 minutes. Then, the cells were treated with 200 μL of the NBT/BCIP® ALP substrate solution diluted in 10 mL of ALP buffer, with 0.5 mL each time. 20 hours later, the cells were observed under the Olympus CKX41 optical microscope at 40× magnification.

[3] = tested on: NHDF-Neonatal; test: Proliferating ability of dermal cells, WST-1 (Test Example 5); type: cell-based, human; details: 5 μg/mL shikimic acid; WST-1, absorbance 450 nm
Protocol: 2,000 NHDF-Neonatal (CC-2509, Lonza, USA) were attached on a 96-well plate. […] Then, we were subculturing it for 7 days (as confluency becomes to 90% or below on 7th day). After 6 days later, 10 μL of WST-1 was treated and absorbance was measured at 450 nm.

[4] = tested on: Oct3/4; test: Oct3/4 immunocytochemistry, shikimic acid at different concentrations (Test Example 2-2); type: cell-based, human; details: for Ratio of Oct3/4-positive cells (%) Mean: NHDF-Neonatal, day 8
Protocol: as §1

[5] = tested on: NHDF-Neonatal; test: Colony-forming ability of dermal cells, crystal violet (Test Example 4-2); type: cell-based, human
Protocol: (§2) On day 5 after subculturing, the cells (200 cells) were attached on a 60-mm plate. On day 17, the cells were washed with ice-cold PBS and then fixed with ice-cold methanol kept at −20° C. for 10 minutes. The cells were stained by treating for 5-10 minutes with a working solution, which had been prepared by diluting 1% crystal violet in an ethanol stock solution 1/10 with PBS, washed 4 times with PBS and then imaged. For quantitative analysis, the cells were eluted by treating with an elution buffer consisting of 50% ethanol, 40% DW, and 10% acetic acid for 5 minutes. Then, absorbance was measured at 580 nm after transferring 200 μL of the cells to a 96-well plate.

[6] = tested on: alkaline phosphatase (ALP); test: Alkaline phosphatase (ALP) staining, shikimic acid at different concentrations (Test Example 3-2); type: cell-based, human; details: 10 μM or 10 mM shikimic acid; day 12; versus normal HDF
Text: On day 5 after the treatment, the cells (100,000 cells) were attached on a 6-well plate.

[7] = tested on: NHDF-Neonatal; test: Colony-forming ability of dermal cells, crystal violet (Test Example 4-1); type: cell-based, human; details: shikimic acid, concentration not given; absorbance 580 nm
Protocol: as §2, with “day 10” for “day 5”, “day 23,” for “day 17,”

## O=C(O)C1=C[C@@H](O)[C@@H](O)[C@H](O)C1 [shikimic acid]
[1]
  Ratio of Oct3/4-positive cells (%) Mean: 29%
[2]
  Expression of ALP (FIG. 12): increased expression of ALP
[3]
  Increase of cell division as compared to the normal control group (FIG. 18): 2 times
[4]; 10 μM or 10 mM shikimic acid, compared to untreated normal HDF
  Expression of the Oct3/4 gene in HDF (FIG. 11): increased expression of the Oct3/4 gene
[4]; 10 μM shikimic acid (water)
  Ratio of Oct3/4-positive cells (%) Mean: 29%
[4]; 10 mM shikimic acid (water)
  Ratio of Oct3/4-positive cells (%) Mean: 27%
[4]; shikimic acid in water, 10 μM and 10 mM
  Percentage of the cells positive for the Oct3/4 gene, on average: 27-29%
[5]; 10 μM, 50 μM, 100 μM, 1 mM or 10 mM shikimic acid, absorbance 580 nm, day 17
  Increase of colony-forming ability as compared to the negative control group (FIG. 17): 1.27-5.06 times
[5]; 10 μM-10 mM shikimic acid, day 17, versus negative control
  Crystal violet stained area, colony formation (FIG. 15): larger stained area
[5]; 1 mM shikimic acid
  Colony-forming ability, comparison of concentrations (FIG. 17): the most increase in colony-forming ability
[6]
  Expression of ALP (FIG. 13): the expression of ALP was increased remarkably
[7]
  Increase of colony-forming ability as compared to the negative control group (FIG. 16): about 3.8 times
